# Measured values from PubChem BioAssay AID2060484 (Molecular Pharmacology Branch, DTP, NCI, 2025).
# Test system: SUM149PT spheroids with HUVEC/MSC, viability
# Assay: Anticancer human tumor SUM149PT cell line growth inhibition [GQUAD];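 also: spheroids exposed to drugs for seven days before readout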;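 as to viability, T/C: percent viability relative to DMSO vehicle control taken as 100%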
# Details: for IC50: curve of first compound; for viability, T/C: stronger effect = lower value
# From the text: DNA G-quadruplex Stabilizer Agents in Combinations in Complex Spheroids
# A high-throughput screen of multi-cell type tumor spheroids was designed to identify active combinations of DNA G-quadruplex stabilizer agents and targeted small molecules. Complex spheroids include a stromal component modeled by human endothelial cells (HUVEC) and fibroblasts modeled by human mesenchymal stem cells (MSCs). The concentration ranges selected for each drug and investigational agent were based upon clinically achievable concentrations if the clinical Cmax of the agent was known.
# Compounds. The drugs and investigational agents: pidnarulex (CX-5461; NSC782164), APTO-253 (NSC789042), BRACO-19 (NSC847499), peposertib (NSC802822), ceralasertib (NSC780249), elimusertib (NSC800525), camonsertib (NSC841442), AZD-1390 (NSC803789), olaparib (NSC753686), talazoparib (NSC767125), ART-558 (NSC835418), sotorasib (NSC818433), MRTX-1133 (NSC836407), SN-38 (NSC673596), topotecan (NSC609699), etoposide (NSC141540), doxorubicin (NSC123127), gemcitabine (NSC613327), 5-fluorouracil (NSC19893), paclitaxel (NSC125973), vemurafenib (NSC761431), panobinostat (NSC761190), R-306465 (JNJ-16241199; NSC773264), adavosertib (NSC754352), TP-3654 (NSC805149), carboplatin (NSC241240), KSQ-4279 (NSC840948), and staurosporine (NSC755774) were obtained from the National Cancer Institute (NCI) Developmental Therapeutics Program Chemical Repository (34). The FDA-approved anticancer drug set is available from the NCI Developmental Therapeutics Program. […] The stock solutions were prepared in dimethyl sulfoxide (DMSO, Sigma-Aldrich, St. Louis, MO, cat. D2650) at 800-fold the tested concentration and stored at -70 degrees C prior to their use. All drugs and investigational agents were tested over a range starting from a high concentration at or near the clinical Cmax and decreasing in half-log increments. If the clinical Cmax for an agent had not been determined, the highest concentration tested was 10 microM.
# 2.3 Cell Culture. All cells were maintained in an incubator at 37 degrees C and 5% CO2 with 95% humidity. The PDC lines were cultured according to standard operating procedures established by the NCI PDMR. All PDCs were thawed and cultured in Matrigel-coated flasks prepared with a working solution of 1X Ham's F-12 nutrient mix, without supplementation (Invitrogen, cat. 11765054), 100 U/mL penicillin-streptomycin (Invitrogen, cat. 15140122), and 2.5% Matrigel (Corning Inc., cat. 354248) for the first three passages. The 857933-349-R-J2-PDC line was cultured in 6C/Colon 1B media, which includes advanced DMEM/F-12 (Thermo Fisher Scientific, cat. 12634028), 10 mM HEPES (Thermo Fisher Scientific, cat. 15630080), 1X GlutaMAX supplement (Thermo Fisher Scientific, cat. 35050061), 0.1 mg/mL primocin (InvivoGen, cat. ant-pm-2), 10% defined fetal bovine serum, heat inactivated (HyClone Laboratories Inc., cat. SH30070.03HI), 50% L-WRN conditioned media (ATCC, cat. CRL-3276), 1.25 mM N-Acetyl-L-cysteine (Sigma-Aldrich, cat. A9165), 10 mM nicotinamide (Sigma-Aldrich, cat. N0636), 1X B-27 supplement (Thermo Fisher Scientific, cat. 17504044), 1X N-2 supplement (Thermo Fisher Scientific, cat. 17502048), 10 microM Y-27632 dihydrochloride (Tocris Bioscience, cat. 1254), and 50 ng/mL human EGF recombinant protein (Thermo Fisher Scientific, cat. PHG0311). The 485176-168-R4-J1-PDC line was cultured in Panc media, which includes all 6C/Colon 1B media components plus 100 ng/mL human FGF-10 (Thermo Fisher Scientific, cat. 100-26), 500 nM SB-431542 (Selleckchem, cat. S1067), and gastrin (Tocris, cat. 3006).
# […]
smiles,measurement,setting,value
O=c1[nH]cc(F)c(=O)[nH]1 + Cc1[nH]c2ccc(F)cc2c1-c1nc2c3cccnc3c3ncccc3c2[nH]1,IC50,second compound 0.0316 µM,7.57 µM
same,IC50,second compound 0.1 µM,6.93 µM
same,IC50,second compound 0.316 µM,> 10 µM
same,IC50,second compound 1 µM,7.58 µM
same,IC50,second compound 3.16 µM,5.27 µM
same,IC50,second compound 10 µM,3.52 µM
same,"viability, T/C","second compound 0.0316 µM, first compound 0.0316 µM",103%
same,"viability, T/C","second compound 0.0316 µM, first compound 0.1 µM",97.3%
same,"viability, T/C","second compound 0.0316 µM, first compound 0.316 µM",107%
same,"viability, T/C","second compound 0.0316 µM, first compound 1 µM",95.6%
same,"viability, T/C","second compound 0.0316 µM, first compound 3.16 µM",57.8%
same,"viability, T/C","second compound 0.0316 µM, first compound 10 µM",47.5%
same,"viability, T/C","second compound 0.1 µM, first compound 0.0316 µM",104%
same,"viability, T/C","second compound 0.1 µM, first compound 0.1 µM",101%
same,"viability, T/C","second compound 0.1 µM, first compound 0.316 µM",108%
same,"viability, T/C","second compound 0.1 µM, first compound 1 µM",111%
same,"viability, T/C","second compound 0.1 µM, first compound 3.16 µM",58.3%
same,"viability, T/C","second compound 0.1 µM, first compound 10 µM",46.1%
same,"viability, T/C","second compound 0.316 µM, first compound 0.0316 µM",99.6%
same,"viability, T/C","second compound 0.316 µM, first compound 0.1 µM",104%
same,"viability, T/C","second compound 0.316 µM, first compound 0.316 µM",97.7%
same,"viability, T/C","second compound 0.316 µM, first compound 1 µM",102%
same,"viability, T/C","second compound 0.316 µM, first compound 3.16 µM",61.9%
same,"viability, T/C","second compound 0.316 µM, first compound 10 µM",48.5%
same,"viability, T/C","second compound 1 µM, first compound 0.0316 µM",103%
same,"viability, T/C","second compound 1 µM, first compound 0.1 µM",107%
same,"viability, T/C","second compound 1 µM, first compound 0.316 µM",98.4%
same,"viability, T/C","second compound 1 µM, first compound 1 µM",110%
same,"viability, T/C","second compound 1 µM, first compound 3.16 µM",63.9%
same,"viability, T/C","second compound 1 µM, first compound 10 µM",45.6%
same,"viability, T/C","second compound 3.16 µM, first compound 0.0316 µM",97.5%
same,"viability, T/C","second compound 3.16 µM, first compound 0.1 µM",98.1%
same,"viability, T/C","second compound 3.16 µM, first compound 0.316 µM",102%
same,"viability, T/C","second compound 3.16 µM, first compound 1 µM",103%
same,"viability, T/C","second compound 3.16 µM, first compound 3.16 µM",56.2%
same,"viability, T/C","second compound 3.16 µM, first compound 10 µM",42.1%
same,"viability, T/C","second compound 10 µM, first compound 0.0316 µM",79.9%
same,"viability, T/C","second compound 10 µM, first compound 0.1 µM",85.1%
same,"viability, T/C","second compound 10 µM, first compound 0.316 µM",101%
same,"viability, T/C","second compound 10 µM, first compound 1 µM",99.5%
same,"viability, T/C","second compound 10 µM, first compound 3.16 µM",51.2%
same,"viability, T/C","second compound 10 µM, first compound 10 µM",37.2%
